Test results as given in article PMC3534310, “Peptide-Modulated Activity Enhancement of Acidic Protease Cathepsin E at Neutral pH” (International Journal of Peptides, 2012).
Peptide text beside a SMILES is read from it.

Tests used:
cathepsin E [1] = target: T1, cathepsin E (Rattus norvegicus, UniProt P16228); assay: Cathepsin E protease activity assay (fluorogenic substrate, neutral pH); assay type: biochemical; conditions: 20 nM cathepsin E + 20 nM peptide; for Activity (%), value in parentheses: Table 2, value in parentheses
T1 construct: Cathepsin E was isolated from rat spleens as previously described; from tissue; host or cells: rat spleen
T1 sequence (P16228 59-398): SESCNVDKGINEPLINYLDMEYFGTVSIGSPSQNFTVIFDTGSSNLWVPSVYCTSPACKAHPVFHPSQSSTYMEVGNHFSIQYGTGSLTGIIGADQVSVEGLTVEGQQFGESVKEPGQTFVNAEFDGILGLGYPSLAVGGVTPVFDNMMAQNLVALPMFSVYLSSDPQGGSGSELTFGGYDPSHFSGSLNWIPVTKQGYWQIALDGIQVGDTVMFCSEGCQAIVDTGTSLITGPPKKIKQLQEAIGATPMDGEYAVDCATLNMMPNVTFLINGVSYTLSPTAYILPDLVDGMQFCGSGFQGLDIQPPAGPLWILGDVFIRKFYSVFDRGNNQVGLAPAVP
Description: (§1) Cathepsin E was isolated from rat spleens as previously described. The fluorogenic substrate for cathepsin E at neutral pH (pH 7.4) was the same as previously reported. The fluorogenic substrate (10 mM) was prepared by dissolving in 100% DMSO and diluting in reaction buffer immediately before use.
Activation of cathepsin E by the selected peptides was determined as previously described. The selected peptides were prepared by in vitro translation or chemical synthesis. A solution containing 20 nM cathepsin E was pre incubated with 20 nM of selected peptides in Selection buffer (50 mM Tris-HCl, 100 mM NaCl, pH 7.4) at 25°C for 10 min. Next, the fluorogenic substrate was added (5 μM) and the mixture was incubated at 37°C for 1 h for the enzyme reaction. The fluorescent reaction product was monitored at 440 nm (excitation at 340 nm) using Infinite 200 (TECAN, Japan). The percent of cathepsin E activation (A) was calculated by: (1) A = 100×(Sf−Bf)/(Cf−Bf) [% activation], where S f was the fluorescence intensity of the cathepsin E reaction in the presence of a selected peptide, C f was the fluorescence intensity of the control in the absence of a selected peptide, and B f was background fluorescence of the solution containing the fluorogenic substrate only.

cathepsin E [2] = target: T1, cathepsin E; assay: Affinity determination by SPR (Biacore2000); assay type: binding; conditions: cathepsin E immobilized on CM5 chip, peptide 10-40 nM, running buffer pH 7.4, 1:1 Langmuir fit
Description: as §1
The dissociation constant (K d) of each selected peptide with cathepsin E was determined by the SPR method using a Biacore2000 (GE Healthcare, UK). Cathepsin E was immobilized on a CM5 Biacore sensor chip (GE Healthcare, UK) by the general amine coupling method. A small quantity of acetate buffer (50 mM sodium acetate, 100 mM NaCl, pH 4.5) containing cathepsin E (150 μg/mL) was injected into the flow cell for the sample lane. The reference lane was prepared similarly but without cathepsin E. Different concentrations (10, 20, 30, and 40 nM) of the selected peptide candidates, T4 and T11 were injected into both lanes at a flow rate of 20 ul/min to measure the interaction between cathepsin E and each peptide candidate. For all experiments, a neutral pH buffer (50 mM Tris-HCl, 100 mM NaCl, pH 7.4) was used as the running buffer and a solution of 50 mM NaOH was used to remove the peptides. The resulting sensorgram curves were fit to a 1 : 1 Langmuir binding model, and the K d values were calculated using BIA evaluation software (GE Healthcare, UK).

HeLa cells = assay: HeLa cell death assay (Cell Counting Kit-F viability, Annexin V-Cy3 apoptosis); assay type: cell-based
Description: HeLa cells were used for an in vitro cell-based bioassay. Approximately 10,000 HeLa cells were seeded into the wells of a 96-well culture plate (Corning, USA) containing 100 uL of DMEM medium supplemented with 10% FBS and 2% penicillin-streptomycin and incubated overnight at 37°C under 5% CO2. The cells were treated with cathepsin E (77 nM) alone or together with two different concentrations (770 nM, 7.7 μM) of the selected peptide T11 in 100 μL of serum-free Opti-MEM at 37°C for 20 h. After incubation, viable cells were determined with a Cell Counting Kit-F (Dojindo Molecular Technologies, Japan) according to the manufacturer's protocol. Viable cells were identified by their fluorescent emissions intensity using an Infinite 200 (TECAN, Japan) with excitation at 490 nm and emission at 515 nm. To detect apoptotic cells, cells were treated with Annexin V-Cy3 (BioVision, USA) following the manufacturer's protocol. Apoptotic cells were detected by their fluorescent emissions with excitation at 543 nm and emission at 570 nm. To detect caspase-3/7 activity induced by cathepsin E, an Apo-ONE Homogeneous Caspase-3/7 Assay kit (Promega, USA) was used according to the manufacturer's protocol. Activity was detected by fluorescent emissions with excitation at 485 nm and emission at 530 nm. […]

[3] = system: caspase-3/7 activity in HeLa cells; assay: Apo-ONE Homogeneous Caspase-3/7 assay in HeLa cells; assay type: cell-based; conditions: for Caspase-3/7 activity: three independent experiments
Description: HeLa cells were used for an in vitro cell-based bioassay. Approximately 10,000 HeLa cells were seeded into the wells of a 96-well culture plate (Corning, USA) containing 100 uL of DMEM medium supplemented with 10% FBS and 2% penicillin-streptomycin and incubated overnight at 37°C under 5% CO2. […] After incubation, viable cells were determined with a Cell Counting Kit-F (Dojindo Molecular Technologies, Japan) according to the manufacturer's protocol. Viable cells were identified by their fluorescent emissions intensity using an Infinite 200 (TECAN, Japan) with excitation at 490 nm and emission at 515 nm. To detect apoptotic cells, cells were treated with Annexin V-Cy3 (BioVision, USA) following the manufacturer's protocol. Apoptotic cells were detected by their fluorescent emissions with excitation at 543 nm and emission at 570 nm. To detect caspase-3/7 activity induced by cathepsin E, an Apo-ONE Homogeneous Caspase-3/7 Assay kit (Promega, USA) was used according to the manufacturer's protocol. Activity was detected by fluorescent emissions with excitation at 485 nm and emission at 530 nm. The cathepsin E and selected peptide concentrations used for apoptosis and caspase assays were the same as those used for cell viability assays.

peptide T4 = target: T2, peptide T4; assay: SPR
T2 chain: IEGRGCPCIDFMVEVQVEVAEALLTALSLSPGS

[4] = Table 2, value outside parentheses, pH 7.4, 37°C 1 h, peptide by in vitro translation (italic) or chemical synthesis
[5] = Table 1, cathepsin E activity alone = 100%, pH 7.4, pre-incubation 25°C 10 min, 5 μM substrate, 37°C 1 h, peptide by in vitro translation (italics) or chemical synthesis
[6] = pH 7.4, 37°C 1 h, peptide by in vitro translation (italic) or chemical synthesis

With “SYKDSCIGGRGSGGGPGGIPGRIGYIG [Peptide T7, peptide selected from the paired peptide (third) library]” as the molecule, how does the “Activity (%)” value (cathepsin E [1]; [4]) read?
Its value is 111%.

SGIKVGCDPPSCG [Peptide S9] was tested. Which “Activity (%)” value (cathepsin E [1]; [5]) did it give?
The value was 140%.

IGCEERSFPNIIIIIG [Peptide S8] was tested. Which “Activity (%)” value (cathepsin E [1]; [5]) did it give?
Its value is 168%.

Which “Activity (%)” value (cathepsin E [1]; [5]) does the source give for GSPCIGII [Peptide S2] here?
Its value is 133%.

For CC[C@H](C)[C@H](N)C(=O)N[C@@H](CCC(=O)O)C(=O)NCC(=O)N[C@@H](CCCNC(=N)N)C(=O)NCC(=O)N[C@@H](CS)C(=O)N1CCC[C@H]1C(=O)N[C@@H](CS)C(=O)N[C@H](C(=O)N[C@@H](CC(=O)O)C(=O)N[C@@H](Cc1ccccc1)C(=O)N[C@@H](CCSC)C(=O)N[C@H](C(=O)N[C@@H](CCC(=O)O)C(=O)N[C@H](C(=O)N[C@@H](CCC(N)=O)C(=O)N[C@H](C(=O)N[C@@H](CCC(=O)O)C(=O)N[C@H](C(=O)N[C@@H](C)C(=O)N[C@@H](CCC(=O)O)C(=O)N[C@@H](C)C(=O)N[C@@H](CC(C)C)C(=O)N[C@@H](CC(C)C)C(=O)N[C@H](C(=O)N[C@@H](C)C(=O)N[C@@H](CC(C)C)C(=O)N[C@@H](CO)C(=O)N[C@@H](CC(C)C)C(=O)N[C@@H](CO)C(=O)N1CCC[C@H]1C(=O)NCC(=O)N[C@@H](CO)C(=O)O)[C@@H](C)O)C(C)C)C(C)C)C(C)C)C(C)C)[C@@H](C)CC [Peptide T4] (H-IEGRGCPCIDFMVEVQVEVAEALLTALSLSPGS-OH), which Kd (cathepsin E [2]; read-out: dissociation constant (Kd) with cathepsin E) is on record?
Its Kd is 2 nM.

What about the “Activity (%), value in parentheses” value (cathepsin E [1]; [6]) of the same molecule?
Its value is 122%.

With PGIKPPPCIIIIG [Peptide S10] as the molecule, how does the “Activity (%)” value (cathepsin E [1]; [5]) read?
Its value is 145%.

For IEGRVGCDFMYVG [Peptide S1], which “Activity (%)” value (cathepsin E [1]; [5]) is on record?
The value was 130%.

How did the “Activity (%)” value (cathepsin E [1]; [4]) turn out when “SDDKSTTLVEVQVEVAEELWRHYHYLLHG [Peptide T6, peptide selected from the paired peptide (third) library]” was run?
The value was 118%.

For SPIISHIVGCDPPSCG [Peptide S7], which “Activity (%)” value (cathepsin E [1]; [5]) is on record?
Its value is 160%.

Which “percentage of dying cells” value (HeLa cells; 77 nM cathepsin E with T11 (770 nM, 7.7 μM) versus without T11, 20 h (Figures 3a, 3b)) does the source give for “IEGRLLSGGAGACSVRTVDDSFDCG [Peptide T11, paired peptide selected from the third library; chemically synthesized, more than 95% purity]” here?
Its value is “significantly higher”.

What about the effect on cells (HeLa cells; peptide alone (without cathepsin E)) of the same molecule?
Its effect on cells is “no effect”.

What about the “dissociation constant (Kd) with cathepsin E” value (cathepsin E [2]) of the same molecule?
Its value is “too weak to be determined”.

What about the “Activity (%), value in parentheses” value (cathepsin E [1]; [6]) of the same molecule?
The value was 138%.

What about the Caspase-3/7 activity ([3]; 77 nM cathepsin E + 7.7 μM peptide T11, 24 h) of the same molecule?
The Caspase-3/7 activity was 188%.

And the Caspase-3/7 activation ([3]; T11 added without cathepsin E)?
The Caspase-3/7 activation was “not observed”.

Which “Activity (%)” value (cathepsin E [1]; [5]) does the source give for PGIKIIIIG [Peptide S4] here?
Its value is 151%.

B1: Cathepsin E (protein)
chain: T1 sequence (P16228 59-398)
Which results are given for B1?
Kd (peptide T4): 2 nM; Caspase-3/7 activity ([3]; 77 nM cathepsin E alone, 24 h): 155%
